Series [1] deals with HCV replicon cells Huh 9B. The format is cell-based.
In series [2] the test system is HCV replicon cells Huh 9B. Briefly: HCV replicon assay (luciferase readout). The format is cell-based. In outline: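 Compounds, made up at twice final strength (final DMSO 1%), were added to subgenomic replicon cells one day after plating. Incubation then ran 72 h at 37 °C, 5% CO2, without G418. Replication was quantified as firefly luciferase luminescence in lysed cells, with cytotoxicity assessed on a duplicate clear plate.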
(Replicon systems follow genome replication, usually without infectious particles.)

The mark [3] stands for this setting: concentration reducing total cell area by 50% relative to DMSO controls, methylene blue, absorbance 620 nm, 72 h incubation.
Setting [4] is: Hepatitis C virus, 72 h, concentration reducing replicon level (luciferase activity) by 50% vs untreated cell control, 72 h incubation.

The structures appear in SMILES notation. Where two headings read alike, the source gives them in different places.

One may read the IC50 as the point on the concentration scale where inhibition reaches its midpoint. Regarding `Cc1ccc(CNC(CO)Cc2cnc[nH]2)cc1-c1ccc(C(=O)Nc2ccc(CN3CCS(=O)(=O)CC3)cc2)cc1` (stereo not drawn) [Example 200, 5′-{[1-Hydroxymethyl-2-(3H-imidazol-4-yl)-ethylamino]-methyl}-2′-methyl-biphenyl-4-carboxylic acid [4-(1,1-dioxo-1lambda*6*-thiomorpholin-4-ylmethyl)-phenyl]-amide], the TD50 result in series [1] (setting [3]) is “** (** > 50 μM)”. The IC50 in series [2] (setting [4]) is above 5 µM.

Take `Cc1ccc(NC(=O)N2CCOCC2)cc1-c1ccc(C(=O)Nc2ccc(CN3CCS(=O)(=O)CC3)cc2)cc1` [Example 152, Morpholine-4-carboxylic acid {4′-[4-(1,1-dioxo-1lambda*6*-thiomorpholin-4-ylmethyl)-phenylcarbamoyl]-6-methyl-biphenyl-3-yl}-amide]: the TD50 result in series [1] (setting [3]) is reported as “** (** > 50 μM)”. This compound also returned an IC50 in series [2] (setting [4]) below 1 µM.

`Cc1ccc(C(=O)Nc2ccc(N3CCOCC3)cc2)cc1-c1ccc(C(=O)Nc2ccc(-c3ccno3)cc2)cc1` [Example 28, 6-Methyl-biphenyl-3,4′-dicarboxylic acid 4′-[(4-isoxazol-5-yl-phenyl)-amide] 3-[(4-morpholin-4-yl-phenyl)-amide]]: the TD50 entry in series [1] is “** (key: * < 50 μM; ** > 50 μM)”. The IC50 in series [2] was below 1 µM.

On to `CN(C)S(=O)(=O)N1CCN(Cc2ccc(NC(=O)c3ccc(-c4cc(NC(=O)NC5CCCCC5)ccc4Cl)cc3)cc2)CC1` [Example 255, 2′-Chloro-5′-(3-cyclohexyl-ureido)-biphenyl-4-carboxylic acid [4-(4-dimethylsulfamoyl-piperazin-1-ylmethyl]-phenyl}-amide], for which the TD50 entry in series [1] (setting [3]) is recorded as “* (* < 50 μM)”. In series [2] (setting [4]), this compound returned an IC50 below 1 µM.

With `CCCCNS(=O)(=O)c1cccc(NC(=O)c2ccc(-c3cc(C(=O)Nc4ccc(N5CCOCC5)cc4)ccc3C)cc2)c1` [Example 21, 6-Methyl-biphenyl-3,4′-dicarboxylic acid 4′-[(3-butylsulfamoyl-phenyl)-amide] 3-[(4-morpholin-4-yl-phenyl)-amide]], the TD50 entry in series [1] is “** (key: * < 50 μM; ** > 50 μM)”. The compound further yielded an IC50 in series [2] of 1 to 5 µM.

For `Cc1ccc(NC(=O)C2(C(F)(F)F)CC2)cc1-c1ccc(C(=O)Nc2ccc(CN3CCS(=O)(=O)CC3)cc2)cc1` [Example 173, 2′-Methyl-5′-[(1-trifluoromethyl-cyclopropanecarbonyl)-amino]-biphenyl-4-carboxylic acid [4-(1,1-dioxo-1lambda*6*-thiomorpholin-4-ylmethyl)-phenyl]-amide], in series [1] (setting [3]), the TD50 entry is reported as “* (* < 50 μM)”. Moreover, the IC50 in series [2] (setting [4]) lay within 1 to 5 µM.

As to `Cc1ccc(C(=O)NCCCN2CCCC2=O)cc1-c1ccc(C(=O)Nc2ccc(CN3CCS(=O)(=O)CC3)cc2)cc1` [Example 137, 6-Methyl-biphenyl-3,4′-dicarboxylic acid 4′-{[4-(1,1-dioxo-1lambda*6*-thiomorpholin-4-ylmethyl)-phenyl]-amide} 3-{[3-(2-oxo-pyrrolidin-1-yl) -propyl]-amide}], in series [1], the TD50 entry is given as “* (key: * < 50 μM; ** > 50 μM)”. Besides, in series [2], the IC50 lay in the range of 1 to 5 µM.

As to `Cc1ccc(C(=O)Nc2ccc(N3CCOCC3)cc2)cc1-c1ccc(C(=O)Nc2ccc(CN3CCNCC3)cc2)cc1` [Example 82, 6-Methyl-biphenyl-3,4′-dicarboxylic acid 3-[(4-morpholin-4-yl-phenyl)-amide] 4′-[(4-piperazin-1-ylmethyl-phenyl)-amide]], in series [1], the TD50 result is “* (key: * < 50 μM; ** > 50 μM)”. In series [2], this compound had an IC50 of 1 to 5 µM.

On to `Cc1ccc(-c2ccc(C(=O)Nc3ccc(CN4CCS(=O)(=O)CC4)cc3)cc2C)cc1NC(=O)C1CC1` [Example 172, 3′-(Cyclopropanecarbonyl-amino)-2,4′-dimethyl-biphenyl-4-carboxylic acid [4-(1,1-dioxo-1lambda*6*-thiomorpholin-4-ylmethyl)-phenyl]-amide], for which the TD50 entry in series [1] (setting [3]) was “* (* < 50 μM)”. Besides, in series [2] (setting [4]), the IC50 is 1 to 5 µM.

Turning to `Cc1ccc(NC(=O)c2ccc(Br)cc2)cc1-c1ccc(C(=O)Nc2ccc(-c3cnco3)cc2)cc1` [Example 212, 5′-(4-Bromo-benzoylamino)-2′-methyl-biphenyl-4-carboxylic acid (4-oxazol-5-yl-phenyl)-amide], the TD50 entry in series [1] (setting [3]) was “** (** > 50 μM)”. The IC50 in series [2] (setting [4]) is above 5 µM.

With `COc1ccc(NC(=O)c2ccc(-c3cc(C(=O)Nc4ccc(N5CCOCC5)cc4)ccc3C)cc2)cc1OC` [Example 34, 6-Methyl-biphenyl-3,4′-dicarboxylic acid 4′-[(3,4-dimethoxy-phenyl)-amide] 3-[(4-morpholin-4-yl-phenyl)-amide]], in series [1], the TD50 result is recorded as “** (key: * < 50 μM; ** > 50 μM)”. Further, the IC50 in series [2] was in the range of 1 to 5 µM.

With `Cc1ccc(NC(=O)c2ccc(N3CCOCC3)cc2)cc1-c1ccc(C(=O)Nc2ccc3cc[nH]c3c2)cc1` [Example 93, 2′-Methyl-5′-(4-morpholin-4-yl-benzoylamino)-biphenyl-4-carboxylic acid (1H-indol-6-yl)-amide], the TD50 entry in series [1] (setting [3]) is reported as “** (** > 50 μM)”. Also, the IC50 in series [2] (setting [4]) was below 1 µM.

`CCOC(=O)c1ccc(-c2cc(C(=O)Nc3ccc(N4CCOCC4)cc3)ccc2C)cc1` [Example 84, 2′-Methyl-5′-(4-morpholin-4-yl-phenylcarbamoyl)-biphenyl-4-carboxylic acid ethyl ester]: the TD50 entry in series [1] (setting [3]) is listed as “** (** > 50 μM)”. Besides, the IC50 in series [2] (setting [4]) is above 5 µM.

Turning to `Cc1ccc(C(=O)Nc2ccc(N3CCOCC3)cc2)cc1-c1ccc(NC(=O)c2ccc(CN3CCOCC3)cc2)cc1` [Example 118, 6-Methyl-4′-(4-morpholin-4-ylmethyl-benzoylamino)-biphenyl-3-carboxylic acid (4-morpholin-4-yl-phenyl)-amide], in series [1] (setting [3]), the TD50 result was “* (* < 50 μM)”. The compound further came in with an IC50 in series [2] (setting [4]) above 5 µM.

Turning to `Cc1ccc(C(=O)Nc2ccc(N3CCOCC3)cc2)cc1-c1ccc(C(=O)Nc2ccc3cn[nH]c3c2)cc1` [Example 67, 6-Methyl-biphenyl-3,4′-dicarboxylic acid 4′-[(1H-indazol-6-yl)-amide] 3-[(4-morpholin-4-yl-phenyl)-amide]], the TD50 entry in series [1] was “** (key: * < 50 μM; ** > 50 μM)”. The IC50 in series [2] was below 1 µM.

Turning to `CCCN(C)Cc1ccc(NC(=O)c2ccc(-c3cc(C(=O)Nc4ccc(N5CCOCC5)cc4)ccc3C)cc2)cc1` [Example 76, 6-Methyl-biphenyl-3,4′-dicarboxylic acid 4′-({4-[(methyl-propyl-amino)-methyl]-phenyl}-amide) 3-[(4-morpholin-4-yl-phenyl)-amide]], the TD50 result in series [1] was “* (key: * < 50 μM; ** > 50 μM)”. For the same compound, the IC50 in series [2] is 1 to 5 µM.

Take `O=C(Nc1ccc2[nH]ccc2c1)c1ccc(-c2cccc(C(=O)Nc3ccc(N4CCOCC4)cc3)c2)cc1` [Example 59, Biphenyl-3,4′-dicarboxylic acid 4′-[(1H-indol-5-yl)-amide] 3-[(4-morpholin-4-yl-phenyl)-amide]]: the TD50 result in series [1] is “** (key: * < 50 μM; ** > 50 μM)”. Also, the IC50 in series [2] lay within 1 to 5 µM.

With `CNS(=O)(=O)Cc1ccc(NC(=O)c2ccc(-c3cc(C(=O)Nc4ccc(N5CCOCC5)cc4)ccc3C)cc2)cc1` [Example 54, 6-Methyl-biphenyl-3,4′-dicarboxylic acid 4′-[(4-methylsulfamoylmethyl-phenyl)-amide] 3-[(4-morpholin-4-yl-phenyl)-amide]], the TD50 result in series [1] is given as “** (key: * < 50 μM; ** > 50 μM)”. The compound also showed an IC50 in series [2] of 1 to 5 µM.

The values above are taken from patent publication US8008303B2, “Biphenyl derivatives and their use in treating hepatitis C” (AstraZeneca AB, priority 2005, dated 2011).
